Test results from the RepoRT retention time repository.

Assay: Agilent ZORBAX 300 SB-C18, 150 × 1 mm, 3.5 µm; A: water + 0.01% heptafluorobutyric acid; B: acetonitrile + 0.01% heptafluorobutyric acid; gradient (min/%B) 0/0 100/90
Settings: stereoisomer not certain

| LC retention time | Compound |
| --- | --- |
| 8.55 min | Cc1ccc2cc(C)c(NCc3cccnc3)nc2c1 |
| 11.1 min | CC1CCCCN1C(=O)c1ccccc1N (stereo unspecified) |
| 20.9 min | CCCCCCCCN1C2=C(C(=O)CC(C)(C)C2)C(c2ccccc2)C2=C1CC(C)(C)CC2=O |
| 15.6 min | COC(=O)c1c(C)[nH]c(-c2ccccc2)c1-c1ccccc1 |
| 8.13 min | COc1cccc(OCCN)c1 |
| 2.95 min | c1c[nH]cn1 |
| 9.97 min | O=C(O)C=CC(=O)N1CCc2ccccc21 |
| 9.06 min | Cc1[nH]c(=S)[nH]c1-c1ccccc1 |
| 5.87 min | CC(C)N(C)C |
| 7.73 min | NCCCNCCNCCCN |
| 7.28 min | O=C(Nc1cccnc1)c1cnccn1 |
| 10.1 min | O=C1NCCc2c1[nH]c1ccccc21 |
| 15.1 min | Cc1ccc(C(=O)C=Cc2ccco2)cc1 |
| 6.84 min | Nc1ncnc2ccccc12 |
| 13.4 min | Cc1ccc(-c2ccc3ccccc3n2)cc1 |
| 10.2 min | CC(=O)N1CCc2[nH]c3ccccc3c2C1 |
| 3.76 min | C[n+]1cccc(C(N)=O)c1 |
| 14.5 min | COc1ccc(N2CC(C(=O)N3CCC(Cc4ccccc4)CC3)CC2=O)cc1 (stereo unspecified) |
| 9.95 min | C#CC(C)(C)NC(=O)NC(C)(C)C#C |
| 11 min | Nc1ccccc1NCCOc1ccccc1 |
| 9.22 min | NCCOc1ccc2ccccc2c1 |
| 6.53 min | CN1C(=O)C(CCC(N)=O)NC1=S (stereo unspecified) |
| 9.59 min | Cc1cccc(-c2ccnc(=S)[nH]2)c1 |
| 11 min | CCCCCCCC(N)=O |
| 7.03 min | CN(C)c1ccncc1N |
| 7.75 min | CC(C)CC(NC(=O)CN)C(=O)O (stereo unspecified) |

| LC retention time | Compound |
| --- | --- |
| 6.82 min | CC(=O)Nc1ccccc1N |
| 7.39 min | CCN(CC)C(=O)N1CCN(C)CC1 |
| 9.89 min | CNC(=S)Nc1c(C)cccc1C |
| 7.04 min | CC(C)C(N)C(C)(C)O (stereo unspecified) |
| 9.45 min | Cc1nc(=S)c2ccccc2[nH]1 |
| 5.87 min | Cc1ncnc2nc[nH]c12 |
| 6.25 min | NCCCCCCO |
| 16.6 min | COc1ccccc1NC(=O)C(c1ccccc1)c1ccccc1 |
| 3.95 min | NC(=O)NCc1ccccn1 |
| 6.08 min | Cn1cnnc1-c1ccncc1 |
| 7.53 min | CN(C)Cc1ccccc1 |
| 15.6 min | CCCCCCCCCCn1c(CCC)nc2ccccc21 |
| 11.7 min | c1ccc2c(N3CCCCC3)nc(N3CCCC3)nc2c1 |
| 14.9 min | c1ccc(C(c2ccccc2)c2nc(-c3ccncc3)no2)cc1 |
| 11.8 min | CCCCOc1cc(C(=O)NCCN(CC)CC)c2ccccc2n1 |
| 8.46 min | O=C(O)CC(C(=O)O)c1c[nH]c2ccccc12 (stereo unspecified) |
| 10.3 min | Cc1ccc(C=NNC(=O)c2ccc(N)cc2)cc1 |
| 15.7 min | Cc1cc(C)c2c(=O)n(CC(=O)NC(C)CCc3ccccc3)c(=O)n(-c3ccccc3)c2n1 (stereo unspecified) |
| 8.6 min | CCCCN(C)CCCC |
| 10.9 min | CC1C2=C(CC(C)(C)CC2=O)NC2=C1C(=O)CC(C)(C)C2 |
| 8.46 min | Nc1cc[n+](Cc2ccccc2)cc1 |
| 6.62 min | CC1CNC(C)CN1 (stereo unspecified) |
| 7.75 min | CCC(C)C(NC(C)=O)C(=O)O (stereo unspecified) |
| 6.94 min | CC(C)N1CCNCC1 |
| 3.25 min | NCC(=O)CCC(=O)O |
| 8.02 min | CC(=NCCN1CCNCC1)C1=C(O)CC(C)(C)CC1=O |

Continued, compound first:

| Compound | LC retention time |
| --- | --- |
| CCCCN(C)C | 7.03 min |
| Cc1cccc(Cc2cnc[nH]2)c1C | 9.65 min |
| CN1N=C(C(=O)O)CCC1=O | 3.29 min |
| c1cncc(-c2cccs2)c1 | 9.08 min |
| O=C1CC(N2CCN(C(c3ccccc3)c3ccccc3)CC2)C(=O)N1c1ccccc1 (stereo unspecified) | 11.2 min |
| CC(=O)Nc1ccc(C(=O)NCc2ccco2)cc1 | 8.96 min |
| CCCNC(=O)Nc1ccc2c(c1)oc1ccccc12 | 14 min |
| Cc1[nH]c2c(C)ccc(C)c2c1CCN | 9.21 min |
| CC(C)Cn1c(Cc2ccccc2)nc2ccccc21 | 11.4 min |
| O=C(O)CCCCC1SCC2NC(=O)NC21 (stereo unspecified) | 7.67 min |
| CCOC(=O)C(Cc1ccc(NC(=O)c2ccccc2)cc1)N1C(=O)c2ccccc2C1=O (stereo unspecified) | 15.2 min |
| Cc1ccccn1 | 6.01 min |
| O=C(C=Cc1ccco1)C1CC1 | 12.1 min |
| CCc1ccncc1 | 6.94 min |
| CCn1c2ccccc2c2cc(CNC)ccc21 | 10.2 min |
| Nc1cccc(CO)c1 | 6.28 min |
| COc1ccc(Oc2ccc(-n3c(C)ccc3C)cc2)cc1 | 18.9 min |
| CCCOC(=O)CCNc1n[nH]c(=O)[nH]c1=O | 8.44 min |
| CC(Cc1ccccc1)N(C)Cc1ccccc1 (stereo unspecified) | 10.8 min |
| O=C1NCCN1C(=O)c1ccco1 | 6.67 min |
| CCCCCCCCCN(C)C | 11.1 min |
| c1cncc(-c2nnco2)c1 | 6.78 min |
| CN(C)CCCN1c2ccccc2Sc2ccccc21 | 11.3 min |
| c1cnc(NC2=NCCN2)cn1 | 6.92 min |
| Cc1cccc(C(=O)C=CN(C)C)c1 | 10.9 min |

| Compound | LC retention time |
| --- | --- |
| O=C1CCC2(O)C3Cc4ccc(O)c5c4C2(CCN3CC2CC2)C1O5 (stereo unspecified) | 8.38 min |
| c1ccc2c(NC3=NCCS3)cccc2c1 | 9.27 min |
| Cc1nn(-c2ccc(C(=O)N3CCN(C)CC3)cc2)c(=O)c2ccccc12 | 8.65 min |
| CCCN1CCC(=O)CC1 | 6.66 min |
| CCOC(=O)CC1CN(C)CCN1C (stereo unspecified) | 7.31 min |
| CCCC[N+](CCCC)(CCCC)CCCC | 13.2 min |
| NNC(=O)CCCO | 2.37 min |
| CN1CCN(c2nc(N)cc(=O)[nH]2)CC1 | 5.8 min |
| Cc1ccc(Nc2ccccc2)cc1 | 16.5 min |
| CN1CCN(C)CC1 | 6.13 min |
| CC(C)NCCO | 5.44 min |
| Cc1ccc(-c2cc(-c3ccc(C)cc3)on2)cc1 | 18.8 min |
| Nc1cccc(CCC(=O)O)c1 | 7.06 min |
| Cc1ccccc1-n1c(O)c(C=C2C=Nc3ccccc32)c(=O)n(-c2ccccc2C)c1=O | 15.9 min |
| O=c1[nH]c(-c2ccccc2)cn1C1CCNCC1 | 8.03 min |
| CNC(C)=O | 2.1 min |
| CC1CC(C)(C)Nc2c(O)cccc21 (stereo unspecified) | 8.99 min |
| Cc1[nH]c(C=O)c(C)c1C | 10.3 min |
| Cc1nc(N=C(N)N)nc2c(C)cccc12 | 9.23 min |
| CCN(CC)c1ccc(C(=O)NCC(C)C)cc1 | 11.7 min |
| O=S(=O)(O)CCNC1CCCCC1 | 5.78 min |
| COc1ccc2c(c1O)-c1cccc3c1C(C2)N(C)CC3 (stereo unspecified) | 9.69 min |
| CCNc1cccc(C)c1 | 8.38 min |
| Cc1cccc(C)c1NC(=S)NCC(C)NC(=S)Nc1c(C)cccc1C (stereo unspecified) | 13.9 min |
